Data: ChEMBL document CHEMBL1129599, “Quantitative structure-activity relationship study of fibrinogen inhibitors, [[4-(4-amidinophenoxy)butanoyl]aspartyl]valine (FK633) derivatives, using a novel hydrophobic descriptor” (J Med Chem, 1996)

How the values were obtained:
[1] = target: T1, Integrin alpha-IIb/beta-3 (Homo sapiens, UniProt P05106+P08514); assay: Inhibition of binding to integrin alphaIIb-beta3; format: protein-complex assay
[2] = Micelle/water partition coefficient; format: ADME; conditions: buffer
[3] = The retention time in min (30 uM); format: ADME
[4] = The retention time in min (40 uM); format: ADME
[5] = The retention time in min (35 uM); format: ADME
[6] = The retention time in min (25 uM); format: ADME
[7] = Inhibition of alphaIIb-beta3 integrin
[8] = target: T1, Integrin alpha-IIb/beta-3; assay: Inhibition of alphaIIb-beta3 integrin; format: protein-complex assay
[9] = Inhibition of binding to fibrinogen receptor

T1 sequence (P05106 27-788 limits assumed): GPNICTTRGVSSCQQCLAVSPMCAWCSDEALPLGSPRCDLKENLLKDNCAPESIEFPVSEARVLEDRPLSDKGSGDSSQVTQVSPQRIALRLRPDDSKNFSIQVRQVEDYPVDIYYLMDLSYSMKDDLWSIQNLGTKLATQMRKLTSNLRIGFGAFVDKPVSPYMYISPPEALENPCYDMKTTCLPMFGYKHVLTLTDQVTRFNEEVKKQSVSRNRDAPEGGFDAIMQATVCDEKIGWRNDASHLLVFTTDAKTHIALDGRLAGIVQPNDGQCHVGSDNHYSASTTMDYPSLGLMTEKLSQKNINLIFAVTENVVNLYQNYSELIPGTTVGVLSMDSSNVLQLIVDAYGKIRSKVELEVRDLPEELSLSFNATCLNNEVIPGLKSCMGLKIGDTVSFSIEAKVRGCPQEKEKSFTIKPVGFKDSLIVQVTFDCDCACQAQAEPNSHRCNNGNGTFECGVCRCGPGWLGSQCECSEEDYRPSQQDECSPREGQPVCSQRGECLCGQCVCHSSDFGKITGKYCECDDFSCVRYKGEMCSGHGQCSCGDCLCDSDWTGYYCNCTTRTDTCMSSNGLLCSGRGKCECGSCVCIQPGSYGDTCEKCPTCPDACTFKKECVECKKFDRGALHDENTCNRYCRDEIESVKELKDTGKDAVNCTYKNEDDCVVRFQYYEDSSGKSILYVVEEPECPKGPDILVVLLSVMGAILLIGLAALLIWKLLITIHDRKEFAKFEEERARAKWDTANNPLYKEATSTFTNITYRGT
T1 sequence (P08514 32-887 limits assumed): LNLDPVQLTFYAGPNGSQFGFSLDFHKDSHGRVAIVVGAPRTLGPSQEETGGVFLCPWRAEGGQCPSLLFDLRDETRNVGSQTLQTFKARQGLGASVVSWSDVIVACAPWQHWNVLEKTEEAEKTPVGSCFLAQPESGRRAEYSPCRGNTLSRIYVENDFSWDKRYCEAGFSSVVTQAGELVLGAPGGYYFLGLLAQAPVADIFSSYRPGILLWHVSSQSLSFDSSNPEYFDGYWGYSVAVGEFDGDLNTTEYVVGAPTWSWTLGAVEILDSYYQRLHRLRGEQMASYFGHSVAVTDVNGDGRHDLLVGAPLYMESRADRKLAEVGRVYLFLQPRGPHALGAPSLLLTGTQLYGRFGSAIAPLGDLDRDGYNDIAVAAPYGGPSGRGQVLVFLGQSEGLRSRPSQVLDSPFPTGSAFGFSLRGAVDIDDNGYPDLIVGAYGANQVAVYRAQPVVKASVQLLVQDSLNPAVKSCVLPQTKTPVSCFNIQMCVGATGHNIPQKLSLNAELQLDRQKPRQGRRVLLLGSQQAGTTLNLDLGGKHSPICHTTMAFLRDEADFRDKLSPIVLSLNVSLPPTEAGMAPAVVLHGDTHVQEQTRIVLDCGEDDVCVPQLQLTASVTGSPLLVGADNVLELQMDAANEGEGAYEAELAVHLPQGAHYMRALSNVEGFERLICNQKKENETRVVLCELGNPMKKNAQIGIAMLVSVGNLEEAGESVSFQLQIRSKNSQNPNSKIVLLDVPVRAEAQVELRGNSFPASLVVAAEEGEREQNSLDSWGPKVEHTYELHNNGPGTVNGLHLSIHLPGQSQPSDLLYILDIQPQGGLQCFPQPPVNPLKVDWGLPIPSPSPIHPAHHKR
T1 sequence (P08514 891-1039 limits assumed): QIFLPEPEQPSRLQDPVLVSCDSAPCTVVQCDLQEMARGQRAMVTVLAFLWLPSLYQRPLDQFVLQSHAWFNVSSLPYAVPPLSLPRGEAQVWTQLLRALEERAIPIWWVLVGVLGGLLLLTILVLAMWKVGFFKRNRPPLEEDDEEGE

SMILES	IC50 [1] [nM]	Log Pmw [2]	Retention time [3] [min]	Retention time [4] [min]	Retention time [5] [min]	Retention time [6] [min]	Log IC50 [7]	IC50 [8] [nM]	Log IC50 [9]
COC(=O)[C@H](Cc1ccc(O)cc1)NC(=O)[C@H](CC(=O)O)NC(=O)CCCCOc1ccc(C(=N)N)cc1	4470	2.09	17.31	14.28	15.56	20.18			
CC[C@H](C)[C@H](NC(=O)[C@H](CC(=O)O)NC(=O)CCCOc1ccc(C(=N)N)cc1)C(=O)O		1.47	8.773	7.826	8.25	9.413	-6.85		
CC(C)(C)C[C@H](NC(=O)[C@H](CC(=O)O)NC(=O)CCCOc1ccc(C(=N)N)cc1)C(=O)O		1.59	12.96	11.19	12.06	14.11		229	
CN(C(=O)[C@H](CC(=O)O)NC(=O)CCCCOc1ccc(C(=N)N)cc1)[C@@H](Cc1ccc(O)cc1)C(=O)O		2	15.67	12.91	14.24	17.87	-6.57		
CN(C(=O)[C@H](CC(=O)O)NC(=O)CCCOc1ccc(C(=N)N)cc1)[C@@H](Cc1ccc(O)cc1)C(=O)O		1.96	13.01	10.91	11.82	14.85		129	
N=C(N)c1ccc(OCCCCC(=O)N[C@@H](CC(=O)O)C(=O)N[C@@H](CO)C(=O)O)cc1		0.904	3.269	3.199	3.238	3.324			
CC(C)[C@H](NC(=O)[C@H](CC(=O)O)NC(=O)CCCCOc1ccc(C(=N)N)cc1)C(=O)O		1.32	7.12	6.52	6.832	7.547	-6.64		
N=C(N)c1ccc(OCCCC(=O)N[C@@H](CC(=O)O)C(=O)N[C@@H](Cc2ccc(O)cc2)C(=O)O)cc1		1.74	9.51	8.23	8.79	10.54			
N=C(N)c1ccc(OCCCCC(=O)N[C@@H](CC(=O)O)C(=O)N[C@@H](Cc2ccc(O)cc2)C(=O)O)cc1		1.82	11.47	9.72	10.57	12.79	-6.19		
CC(C)[C@H](NC(=O)[C@H](CC(=O)O)NC(=O)CCCOc1ccc(C(=N)N)cc1)C(=O)O		1.29	5.545	5.207	5.347	5.898		110	
CC(C)C[C@H](NC(=O)[C@H](CC(=O)O)NC(=O)CCCOc1ccc(C(=N)N)cc1)C(=O)O		1.47	8.773	7.826	8.25	9.413		135	
CCCC[C@H](NC(=O)[C@H](CC(=O)O)NC(=O)CCCOc1ccc(C(=N)N)cc1)C(=O)O		1.58	10.21	8.943	9.491	11.11			-7.12
